The source of these data is patent US20240024647A1, “MUCOSA PERFORATION” (LTS LOHMANN THERAPIE-SYSTEME AG, priority 2020, published 2024).

A short description of data set [1]: In vitro permeation by Franz diffusion cells, dissolving microneedle system loaded with active ingredient, applied into the mucosa versus in reverse. On the procedure: The following test series with the selected active ingredients in each case were performed within the scope of a typical in vitro permeation by means of Franz diffusion cells (volume 10 mL) at 37° C. The used acceptor medium was replaced completely for a new one at predetermined replacement times, and the content of permeated active ingredient amount in these acceptor solutions was determined by means of HPLC. […]
For preparation, sumatriptan succinate, polyvinylpyrrolidone, Polysorbate 80 and glycerol were dissolved in water with the proportions 5:20:1:1:73 (in each case in wt. %). The finished solution was poured into negative needle moulds made of silicone, the surface of which was coated with a thin platinum layer by vacuum metallisation. The negative moulds were then dried overnight at room temperature. The dried microneedle systems were carefully pressed out from the dies after the drying process and stored under exclusion of moisture until their further use. The active ingredient content was 4.25 mg sumatriptan succinate per 0.785 cm^2 of system or 5.41 mg/cm^2.
The length of the microneedles of the used microneedle system was 500 μm. A total of 600 microneedles were applied to an area of 0.785 cm^2 (microneedle density=764 per cm^2).
(§1) Dermatomised skin from the oesophagus of a pig with a layer thickness of 400 μm was used as skin model.
The microneedle system remained in the mucosa throughout the permeation period, the cell head additionally also having been filled with lead balls in order to simulate the in vivo contact pressure (for example between mandible and oral mucosa) in the oral cavity. As protection for the dissolving microneedle system, a separation film based on siliconised PET (polyethylene terephthalate) was also introduced in between in front of the lead balls.

Data set [2] is described as follows: Solubility of the active ingredient in the acceptor medium. It is filed as physicochemical.
Data set [3] in a line: In vitro permeation by Franz diffusion cells, mucosa with versus without steel microneedle system (AdminPatch). The procedure:
The following test series with the selected active ingredients in each case were performed within the scope of a typical in vitro permeation by means of Franz diffusion cells (volume 10 mL) at 37° C. The used acceptor medium was replaced completely for a new one at predetermined replacement times, and the content of permeated active ingredient amount in these acceptor solutions was determined by means of HPLC.
The contact pressure was 3 N by thumb pressure, monitored by means of a Roberval balance. The pressing time was 10 sec.
A total of 187 microneedles were applied to an area of 0.785 cm^2 (microneedle density=238 per cm^2).
For Example 4, the donor solution was injected (900 μl) onto or into the used dentistry tamponade (length and diameter 1 cm each). The microneedle system was fixed to the underside of the tamponade and was applied to the mucosa surface perpendicularly through the head of the Franz cells and fixed in a defined position by a suitable stopper and with moderate pressure.
Phosphate buffer (pH 5.5) was used as acceptor medium and an addition of 2 wt. % Tween® 20 was used as organic solvent to maintain “sink” conditions. (sink=current solubility at time t of an active ingredient in an acceptor medium of at most 30% of its saturation solubility in this acceptor medium)
A saturated solution of riociguat in clove oil (Primavera® clove bud organic essential oil, Oy-Mittelberg, Germany) was used as donor solution.
as §1
0.025 molar HEPES buffer (pH 7.4) was used as acceptor medium.
Phosphate buffer (pH 5.5) was used as acceptor medium and an addition of 2 wt. % Tween® 20 was used as organic solvent to maintain “sink” conditions. […]
The surface of the mucosa was treated with the “AdminPatch™” microneedle system (needle length 600 μm) from the company “nanobioSciences” (CA, USA) made of steel with a contact pressure of 3 N by thumb pressure, monitored by means of a Roberval balance for 10 sec. […]

Where [4] appears, read: dissolving microneedle system loaded with sumatriptan base, acceptor phosphate buffer pH 6.0 + 2 wt. % Tween 20, FIG. 9.

Structures can show the parent of a compound that is named as a salt.

For the compound `CNS(=O)(=O)Cc1ccc2[nH]cc(CCN(C)C)c2c1` [sumatriptan base], in data set [1] (setting [4]), the “active ingredient flux in the comparative example (system applied in reverse, not penetrating into the mucosa)” value was “not possible to measure an active ingredient flux” and the “active ingredient flux with the microneedle system applied in the mucosa” value was “high active ingredient flux could be observed”. Further, in data set [2] (phosphate buffer (pH 6.0) with 2 wt. % Tween 20), the “solubility in acceptor medium” value is listed as “very easily dissolved”.

Regarding `CN1CCc2cccc3c2[C@H]1Cc1ccc(O)c(O)c1-3` [apomorphine hydrochloride], the “solubility in acceptor medium” value in data set [2] (phosphate buffer (pH 6.8) with 0.1 wt. % L-ascorbic acid) is listed as “very easily dissolved”.

For the compound `C=C(C)[C@@H]1CCC(C)=C[C@H]1c1c(O)cc(CCCCC)cc1O` [cannabidiol], the “active ingredient flux after pretreatment with a microneedle system, factor higher in comparison to administration without pretreatment” value in data set [3] (saturated cannabidiol solution in clove oil, dentistry tamponade with microneedle system, acceptor phosphate buffer pH 5.5 + 2 wt. % Tween 20, FIG. 4) was 2.0. On to `CCCCCc1cc(O)c2c(c1)OC(C)(C)[C@@H]1CCC(C)=C[C@@H]21` [tetrahydrocannabinol], for which the “time after which permeated active ingredient could be detected without pretreatment” value in data set [3] (saturated tetrahydrocannabinol solution in clove oil, acceptor phosphate buffer pH 5.5 + 2 wt. % Tween 20, FIG. 3) is 3 h. The “permeated active ingredient without pretreatment, factor lower in comparison to pretreated mucosa” value in data set [3] (saturated tetrahydrocannabinol solution in clove oil, value after 3 hours, FIG. 3) was found to be 5. In the case of `CNS(=O)(=O)Cc1ccc2[nH]cc(CCN(C)C)c2c1` [sumatriptan succinate], the “first permeation value after 10 min, factor higher in comparison to the comparative example” value in data set [1] (pig, 10 min, pH 7.4) was “approximately 4”. In addition, in data set [1] (pig, pH 7.4), the “active ingredient flux with the microneedle system applied in the mucosa, factor higher in comparison to the system without penetration into the mucosa” value was 2.0. For the same compound, the “solubility in acceptor medium” value in data set [2] (phosphate buffer (pH 7.4) without further additives) is “very easily dissolved”.

For the compound `CC(=O)O[C@]1(C(C)=O)CC[C@H]2[C@@H]3CCC4=CC(=O)CCC4=C3[C@@H](c3ccc(N(C)C)cc3)C[C@@]21C` [ulipristal acetate], in data set [2] (phosphate buffer (pH 7.4) with 2 wt. % Tween 20), the “solubility in acceptor medium” value is reported as “very easily dissolved”.
